# Laboratory results from patent US6392049B1, “Process for preparing 2,4-dihydroxypyridine and 2,4-dihydroxy-3-nitropyridine” (Aventis Pharmaceuticals Inc., priority 1996, dated 2002).
# Assays:
# [1] = target: T1, A1 receptor (Rattus norvegicus, UniProt P25099); test: A1 adenosine receptor binding, displacement of 3H-CHA, whole rat brain membranes; settings: 3H-CHA displacement, 25° C., 60 minutes
# T1 construct: using a membrane preparation of whole rat brain; from tissue; host or cells: whole rat brain membranes
# T1 sequence (P25099 1-326): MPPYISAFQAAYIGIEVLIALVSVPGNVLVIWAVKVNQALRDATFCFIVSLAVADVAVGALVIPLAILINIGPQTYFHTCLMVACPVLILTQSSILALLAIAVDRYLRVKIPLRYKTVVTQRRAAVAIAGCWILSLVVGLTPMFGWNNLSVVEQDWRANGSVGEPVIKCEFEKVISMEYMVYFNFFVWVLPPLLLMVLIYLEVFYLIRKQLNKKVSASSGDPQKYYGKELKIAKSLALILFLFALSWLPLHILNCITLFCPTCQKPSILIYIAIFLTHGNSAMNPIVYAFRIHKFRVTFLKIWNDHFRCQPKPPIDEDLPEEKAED
# [2] = target: T2, A2 receptor (Rattus norvegicus, UniProt P30543); test: A2 adenosine receptor binding, displacement of 3H-CGS 21680, rat brain striatum membranes; settings: 3H-CGS 21680 displacement, rat brain striatum membranes, 25° C., 90 minutes; read-out: Adenosine Receptor Binding Activity/IC50 (nM) A2
# T2 construct: using membranes from rat brain striatum; from tissue; host or cells: rat brain striatum membranes
# T2 sequence (P30543 whole entry): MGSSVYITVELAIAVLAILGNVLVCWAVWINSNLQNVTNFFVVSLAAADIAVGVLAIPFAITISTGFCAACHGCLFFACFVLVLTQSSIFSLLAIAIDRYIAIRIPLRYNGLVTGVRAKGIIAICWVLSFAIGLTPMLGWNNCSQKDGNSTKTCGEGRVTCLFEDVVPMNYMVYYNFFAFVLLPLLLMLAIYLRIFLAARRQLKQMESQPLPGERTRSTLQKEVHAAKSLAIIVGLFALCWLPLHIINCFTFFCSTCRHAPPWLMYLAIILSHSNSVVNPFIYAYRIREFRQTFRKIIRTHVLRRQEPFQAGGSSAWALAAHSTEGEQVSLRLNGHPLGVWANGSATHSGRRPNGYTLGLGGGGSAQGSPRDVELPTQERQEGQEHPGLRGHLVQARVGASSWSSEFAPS
# [3] = system: swine coronary arteries; test: In vitro vasorelaxation in isolated swine coronary arteries; assay type: cell-based; settings: Sus scrofa, read-out: Vasorelaxation in Swine Coronary Artery/IC50 (μM)
# Description: Swine coronary arteries are obtained from a local slaughter house, dissected carefully and cleaned of fat, blood and adhering tissue. Rings approximately 2-3 mm wide are cut and transferred to water-jacketed tissue baths (10 mL) filled with warm (37° C.), oxygenated (O2/CO2:95%/5%) Krebs-Henseleit buffer and mounted on L-shaped hooks between stainless steel rods and a force transducer. […] PGF2a, before being exposed to 3 μM PGF2a.
# [4] = system: normotensive anesthetized rat; test: Mean arterial blood pressure and heart rate in normotensive anesthetized rat; assay type: in vivo
# Description: Normotensive rats are anesthetized with sodium pentobarbital (50 mg/kg, i.p.) and placed on a heated surgical table. Cannulas are inserted into the femoral artery and veined to allow the measurement of arterial pressure and to facilitate the intravenous administration of test compounds. The animals are allowed to equilibrate for 10 minutes after surgery. Mean arterial pressure is continuously measured and recorded and heart rate is monitored using the arterial pressure pulse to trigger a cardiotachometer. After baseline parameters are established and recorded, increasing doses (1, 3, 10, 30, 100, 300 and 1000 μg/kg) of the compound of Formula I to be tested are administered intravenously. Maximal changes in the cardiovascular parameters are observed after each dose of the adenosine agonist. Only one compound is administered per rat.
# [5] = system: spontaneously hypertensive rat (SHR); test: Oral antihypertensive activity in conscious spontaneously hypertensive rat (SHR); assay type: in vivo; settings: single oral dose 5 mg/kg, D signifies decrease, I signifies increase
# Description: The oral antihypertensive activity of compounds of Formula I are examined in conscious spontaneously hypertensive rats. The rats are anesthetized with sodium phenobarbitol (50 mg/kg i.p.). A telemetry transducer is implanted into the rats abdomen via midline incision. The cannula of the transducer is inserted into the abdominal aorta to allow direct measurement of arterial pressure in the conscious SHR. The transducer is secured to the abdominal wall. After recovery from surgery (minimum of seven days), the SHR are placed on a receiver plate and the transducer/transmitter is activated. Systolic, diastolic and mean arterial pressure and heart rate are recorded for 1.5 hours in the unrestrained conscious rat to establish a stable baseline. Each rat then received a single dose of the compound of Formula I to be tested, or vehicle, and changes in arterial pressure and heart rate are monitored for 20 hours and recorded.
# [6] = system: A2 receptor; settings: background section; cited from earlier work
# [7] = system: A1 and A2 receptors; settings: selectivity, background section; cited from earlier work
compound,measurement,setting,value
"OC[C@H]1O[C@@H](n2cnc3c(N[C@@H]4CC=CC[C@H]4c4cccs4)ncnc32)[C@H](O)[C@@H]1O (relative stereo) [Example 4, N6-[trans-2-(thiophen-2-yl)cyclohex-4-en-yl]adenosine]",IC50,[1],1.66 nM
same,IC50,[2],55 nM
same,IC50,[3],0.73 µM
same,Anesthetized Rat HR/ED25,[4]; intravenous dose lowering heart rate by 25%,0.019 mg/kg
same,Anesthetized Rat MAP/ED25,[4]; intravenous dose lowering mean arterial pressure by 25%,0.013 mg/kg
same,SHR HR/%,[5],20 (D) %
same,SHR MAP/%,[5],28 (D) %
same,melting point,,105 to 110 °C
Nc1nc(Nc2ccccc2)nc2c1ncn2[C@@H]1O[C@H](CO)[C@@H](O)[C@H]1O [CV-1808],fold less potent than NECA in affinity for the A2 receptor,[6],10 fold
same,A2/A1 ratio,[7],0.19
"CCNC(=O)[C@H]1C[C@@H](n2cnc3c(N[C@H](C)Cc4cccs4)ccnc32)[C@H](O)[C@@H]1O [Example 40, [1S-[1a,2b,3b,4a(S*)]]-4-[7-[[2-(2-thienyl)-1-methylethyl]amino]-3H-imidazo[4,5-b]pyridin-3-yl]-N-ethyl-2,3-dihydroxycyclopentane-carboxamide]",IC50,[1],9.3 nM
same,IC50,[2],68.8 nM
same,IC50,[3],283 µM
same,melting point,,155 to 160 °C
